Assay results taken from patent US10168342B2, “Lipid probes and uses thereof” (THE SCRIPPS RESEARCH INSTITUTE, priority 2015, dated 2019).

Key:
[1] = molecular target: T1, AEA-DA-modified peptides in Neuro2a cells (Mus musculus, UniProt Q02819); experiment: isoTOP-ABPP mapping of AEA-DA-modified peptides in Neuro2a cells; type: cell-based; settings: for Times observed: probe 100 μM, 12 replicates
T1 construct: endogenous in cells; host or cells: Neuro2a
T1 sequence (Q02819 26-459): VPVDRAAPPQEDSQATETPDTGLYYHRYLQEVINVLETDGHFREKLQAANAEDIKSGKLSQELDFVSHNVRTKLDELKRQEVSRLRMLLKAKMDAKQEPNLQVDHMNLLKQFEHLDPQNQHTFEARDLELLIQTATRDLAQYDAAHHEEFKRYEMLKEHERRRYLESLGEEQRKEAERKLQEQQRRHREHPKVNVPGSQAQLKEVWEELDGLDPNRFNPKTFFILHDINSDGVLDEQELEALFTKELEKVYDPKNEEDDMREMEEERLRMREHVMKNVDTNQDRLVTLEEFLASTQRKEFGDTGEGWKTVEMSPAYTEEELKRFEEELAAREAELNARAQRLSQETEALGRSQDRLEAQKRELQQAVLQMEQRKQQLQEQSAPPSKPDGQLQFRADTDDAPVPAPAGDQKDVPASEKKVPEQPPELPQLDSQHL
Protocol: Experiments were performed as described above using the AEA-DA probe (100 μM) in 3.0 mL of DMEM (serum-free) and Neuro2A cells without (twelve replicates; ten biological; two technical). For the ligand competition study, cells were treated with the AEA-DA probe (50 μM) and DMSO or MJN228 (50 μM) treatment. Cells were harvested and processed as described above. Whole cell lysates (500 μL at 1.5 mg/mL) were processed for MS analysis using the previously described isoTOPABPP protocol (Speers and Cravatt, 2005). In brief, for global mapping of AEA-DA-modified peptides, proteomes were split into two fractions, which were subjected to click chemistry conditions with either light or heavy isotopically labeled TEV-tags. For the […] competition study, proteomes were subjected to click chemistry conditions with either light (DMSO) or heavy (MJN228-treated) TEV-tags. Light and heavy-tagged proteomes in each experiment were then combined, and, following enrichment of probe-labeled targets using streptavidin beads, proteins were digested on-bead with trypsin and remaining immobilized peptides released with a subsequent TEV protease digestion. The resulting probe-modified peptides were collected for MS analysis, which was performed as described above with differences in the salt bumps applied in the chromatographic gradients which were 0%, 30%, 60%, 90% and 100% NH4OAc (500 mM). The protein identification searches of the MS data were performed using the same software packages described above with the following changes applied to identify the peptides modified with AEA-DA and the cleaved TEV tag. All amino acids were considered as possible residues for modification. To facilitate the computational searches, sets of up to 3 amino acids were searched using ProLuCID and filtered with DTASelect as described above. The mass of the modification used to search for probe-modified peptides was +727.4745 m/z for the probe plus the light TEV-tag and +733.4831 m/z for the heavy counterpart. […] For global mapping experiments, AEA-DA-modified peptides were expected to show a ratio of “heavy” and “light” signals of ˜1.0 (0.5<ratio<2.0) and were required to have been detected in at least two of the twelve replicate experiments.
In some embodiments, the ligands are tested for their interaction to NUCB1 in cells. […] MJN228 inhibited lipid probe binding to NUCB1 at concentrations as low as 10 μM, with near-maximal inhibition observed at ˜25 μM (FIG. 16A). […] The site of arachidonoyl probe (and MJN228) binding to NUCB1 was mapped in cells, which was accomplished by treating Neuro2A cells with the AEA-DA probe (50 μM) in the presence of DMSO or MJN228 (50 μM), followed by UV irradiation, CuAAC conjugation of AEA-DA-labeled proteins to isotopically light (DMSO-treated cells) and heavy (MJN228-treated cells) azide-biotin tags featuring a TEV protease-cleavable linker, and LCMS/MS analysis using a previously described platform, termed isoTOP-ABPP, for mapping probe-modified peptides in proteomes (Speers and Cravatt, 2005). A AEA-DA labeled peptide was identified for NUCB1 (aa 53-68) in DMSO-treated cells and the signals for this peptide were substantially (>5-fold) reduced in MJN228-treated cells (FIG. 15C). This AEA-DA labeling site was confirmed using recombinant, purified hNUCB1 and tandem MS analysis which narrowed down the site of probe modification to His67 (FIGS. 16B and 16C).

[2] = molecular target: T2, A-DA lipid probe targets in A549 cells (Homo sapiens, UniProt P35354); experiment: In situ competitive SILAC profiling with A-DA probe in (PMA-stimulated) A549 cells; settings: A549 cells, A-DA probe
T2 sequence (P35354 18-604): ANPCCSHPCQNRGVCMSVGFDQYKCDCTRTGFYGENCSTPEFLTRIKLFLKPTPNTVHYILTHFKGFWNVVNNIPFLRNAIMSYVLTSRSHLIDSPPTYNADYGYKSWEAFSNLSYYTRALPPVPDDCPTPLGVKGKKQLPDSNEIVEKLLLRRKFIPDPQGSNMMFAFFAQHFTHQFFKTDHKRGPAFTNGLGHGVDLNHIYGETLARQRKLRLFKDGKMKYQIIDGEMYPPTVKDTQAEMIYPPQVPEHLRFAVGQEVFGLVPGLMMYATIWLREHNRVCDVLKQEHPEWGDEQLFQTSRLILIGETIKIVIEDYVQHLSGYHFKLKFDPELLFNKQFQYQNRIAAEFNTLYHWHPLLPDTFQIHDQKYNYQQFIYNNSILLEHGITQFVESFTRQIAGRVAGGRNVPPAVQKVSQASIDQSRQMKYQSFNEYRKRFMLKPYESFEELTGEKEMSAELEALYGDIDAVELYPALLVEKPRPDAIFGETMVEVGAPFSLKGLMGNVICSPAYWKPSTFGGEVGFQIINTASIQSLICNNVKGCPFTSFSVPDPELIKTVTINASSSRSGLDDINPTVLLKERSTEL

[3] = molecular target: A-DA lipid probe targets in A549 cells (Homo sapiens, UniProt Q9NX47); experiment: as above; settings: A549 cells, A-DA probe
[4] = molecular target: AEA-DA lipid probe targets in A549 cells (Homo sapiens, UniProt P67812); experiment: In situ competitive SILAC profiling with AEA-DA probe in A549 cells; settings: competitor 25 μM
[5] = molecular target: AEA-DA lipid probe targets in A549 cells (Homo sapiens, UniProt P45880); experiment: as above; settings: competitor 25 μM
[6] = molecular target: AEA-DA lipid probe targets in A549 cells (Homo sapiens, UniProt P21796); experiment: as above; settings: competitor 25 μM
Sequence of AEA-DA lipid probe targets in A549 cells (Homo sapiens, UniProt P21796) (P21796 whole entry): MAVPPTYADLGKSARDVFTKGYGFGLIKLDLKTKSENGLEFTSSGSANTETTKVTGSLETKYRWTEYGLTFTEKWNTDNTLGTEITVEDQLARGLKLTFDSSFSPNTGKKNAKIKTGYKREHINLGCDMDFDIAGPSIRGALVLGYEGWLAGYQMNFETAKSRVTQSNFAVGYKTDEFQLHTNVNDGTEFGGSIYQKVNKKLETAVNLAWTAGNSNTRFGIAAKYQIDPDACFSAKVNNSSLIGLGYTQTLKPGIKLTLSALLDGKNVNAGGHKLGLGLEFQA

Sequence of A-DA lipid probe targets in A549 cells (Homo sapiens, UniProt Q9NX47) (Q9NX47 whole entry): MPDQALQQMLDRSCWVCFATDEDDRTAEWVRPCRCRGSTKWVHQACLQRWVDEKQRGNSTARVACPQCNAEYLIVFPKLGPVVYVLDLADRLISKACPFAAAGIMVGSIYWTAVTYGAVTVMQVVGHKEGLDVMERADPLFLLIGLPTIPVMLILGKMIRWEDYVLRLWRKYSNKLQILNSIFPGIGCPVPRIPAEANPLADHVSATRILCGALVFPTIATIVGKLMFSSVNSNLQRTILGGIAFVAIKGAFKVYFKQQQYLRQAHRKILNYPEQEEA
Sequence of AEA-DA lipid probe targets in A549 cells (Homo sapiens, UniProt P67812) (P67812 whole entry): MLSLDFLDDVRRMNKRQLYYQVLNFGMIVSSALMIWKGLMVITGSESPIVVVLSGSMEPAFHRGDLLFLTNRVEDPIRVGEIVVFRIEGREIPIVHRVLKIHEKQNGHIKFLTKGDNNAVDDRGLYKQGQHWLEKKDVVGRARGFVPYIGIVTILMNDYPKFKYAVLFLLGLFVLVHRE
Sequence of AEA-DA lipid probe targets in A549 cells (Homo sapiens, UniProt P45880) (P45880 whole entry): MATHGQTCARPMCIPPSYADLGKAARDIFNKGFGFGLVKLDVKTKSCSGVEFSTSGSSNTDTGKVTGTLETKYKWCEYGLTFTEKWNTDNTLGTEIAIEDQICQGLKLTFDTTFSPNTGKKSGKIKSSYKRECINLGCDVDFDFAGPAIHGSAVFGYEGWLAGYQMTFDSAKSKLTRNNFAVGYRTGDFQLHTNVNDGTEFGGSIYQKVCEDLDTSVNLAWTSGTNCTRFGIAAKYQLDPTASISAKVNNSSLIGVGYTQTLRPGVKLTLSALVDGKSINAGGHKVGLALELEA

Structure (SMILES): C#CCCCC1(CC/C=C\C/C=C\C/C=C\CCCC(=O)NCCO)N=N1 [AEA-DA, (5Z,8Z,11Z)-N-(2-hydroxyethyl)-14-(3-(pent-4-yn-1-yl)-3H-diazirin-3-yl)tetradeca-5,8,11-trienamide]
- Times observed ([1]; AEA-DA-modified peptide NUCB1 Q02819 53-69, SEQ ID NO 71): 11
- Times observed ([1]; AEA-DA-modified peptide NUCB1 Q02819 246-275, SEQ ID NO 70): 4

Structure (SMILES): O=C(/C=C/c1cccnc1)NCCCCC1CCN(C(=O)c2ccccc2)CC1 [FK-866, reference compound]
- SILAC ratio, PTGS2 (P35354) ([2]; competitor 25 μM): 1.9
- SILAC ratio, MARCH5 (Q3KNM2) ([3]; competitor 25 μM): 1.3
- SILAC ratio, SEC11A (P67812) [4]: 0.6
- SILAC ratio, VDAC2 (P45880) [5]: 0.9
- SILAC ratio, VDAC1 (P21796) [6]: 0.8

Structure (SMILES): CN1CCN(C(=O)c2[nH]c3ccc([N+](=O)[O-])cc3c2-c2ccccc2)CC1 [MJN228, (4-Methylpiperazin-1-yl)(5-nitro-3-phenyl-1H-indol-2-yl)methanone]
- reduction of signals of AEA-DA labeled NUCB1 peptide (aa 53-68) ([1]; Neuro2A cells, AEA-DA 50 μM, MJN228 50 μM): > 5 fold

Structure (SMILES): C=CCN(C)CCCCCCOc1ccc(C(=O)c2ccc(Br)cc2)c(F)c1 [Ro488071]
- SILAC ratio, PTGS2 (P35354) ([2]; competitor 5 μM): 2.5
- SILAC ratio, PTGS2 (P35354) ([2]; competitor 50 μM): 3.3
- SILAC ratio, MARCH5 (Q3KNM2) ([3]; competitor 5 μM): 1.2
